For the first series, the target named is T1, murine TLR9 (Mus musculus, UniProt Q9EQU3, L378S/Q579H/T325N/T573A/T867A).
T1 construct: additional primers were designed for amplification of the complete mouse TLR9 cDNA; expressed in transfected cells
T1 sequence (Q9EQU3 26-1032 T325N/L378S/T573A/Q579H/T867A): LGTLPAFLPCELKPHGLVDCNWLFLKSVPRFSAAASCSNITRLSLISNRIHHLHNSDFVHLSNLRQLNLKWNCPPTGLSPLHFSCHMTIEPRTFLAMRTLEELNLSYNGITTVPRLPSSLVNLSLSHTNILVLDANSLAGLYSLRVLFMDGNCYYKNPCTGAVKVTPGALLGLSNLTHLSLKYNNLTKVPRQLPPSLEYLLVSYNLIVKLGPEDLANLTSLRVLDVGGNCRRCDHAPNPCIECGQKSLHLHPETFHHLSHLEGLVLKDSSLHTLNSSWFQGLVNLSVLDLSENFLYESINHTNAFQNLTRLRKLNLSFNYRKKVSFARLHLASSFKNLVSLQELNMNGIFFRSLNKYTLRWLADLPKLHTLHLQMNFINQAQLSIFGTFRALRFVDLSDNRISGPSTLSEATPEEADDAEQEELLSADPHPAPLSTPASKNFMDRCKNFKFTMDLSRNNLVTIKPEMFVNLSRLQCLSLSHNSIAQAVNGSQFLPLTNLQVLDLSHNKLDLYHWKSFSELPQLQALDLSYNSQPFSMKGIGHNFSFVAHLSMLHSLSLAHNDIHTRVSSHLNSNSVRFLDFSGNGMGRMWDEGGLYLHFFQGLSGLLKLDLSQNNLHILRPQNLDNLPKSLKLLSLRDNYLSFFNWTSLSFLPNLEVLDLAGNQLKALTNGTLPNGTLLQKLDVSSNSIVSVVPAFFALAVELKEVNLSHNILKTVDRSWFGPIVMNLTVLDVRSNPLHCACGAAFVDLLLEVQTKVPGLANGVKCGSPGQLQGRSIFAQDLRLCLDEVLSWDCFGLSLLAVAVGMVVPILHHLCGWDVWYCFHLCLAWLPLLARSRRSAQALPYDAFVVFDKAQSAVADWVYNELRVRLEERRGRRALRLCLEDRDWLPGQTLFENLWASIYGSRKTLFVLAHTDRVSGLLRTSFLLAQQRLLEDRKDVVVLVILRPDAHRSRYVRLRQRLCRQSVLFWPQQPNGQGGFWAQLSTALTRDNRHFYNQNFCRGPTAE
As to the kind of experiment: NF-κB-luciferase activation in 293 cells transfected with murine TLR9 (293-mTLR9-luc). The class given is cell-based. The following applies: CpG-ODN 1668 compared with CpG-ODN 2006. The source says:
Human fibroblast 293 cells were transiently transfected with mTLR9 and the NF-κB-luc construct (FIG. 2). Similar data was obtained for IL-8 production (not shown). Thus expression of TLR9 (human or mouse) in 293 cells results in a gain of function for CpG-DNA stimulation similar to hTLR4 reconstitution of LPS responses.
To generate stable clones expressing human TLR9, murine TLR9, or either TLR9 with the NF-κB-luc reporter plasmid, 293 cells were transfected in 10 cm plates (2×10^6 cells/plate) with 16 μg of DNA and selected with 0.7 mg/ml G418 (PAA Laboratories GmbH, Cölbe, Germany). The clones were also screened for IL-8 production or NF-κB-luciferase activity after stimulation with ODN. Four different types of clones were generated. • 293-hTLR9-luc: expressing human TLR9 and 6-fold NF-κB-luciferase reporter • 293-mTLR9-luc: expressing murine TLR9 and 6-fold NF-κB-luciferase reporter • 293-hTLR9: expressing human TLR9 • 293-mTLR9: expressing murine TLR9
Similar results were obtained utilizing IL-8 production with the stable clone 293-hTLR9. 293-mTLR9-luc were also stimulated with CpG-ODN (1668, 2 μM; […], SEQ ID NO:84), GpC-ODN (1668-GC, 2 μM; […], SEQ ID NO:85), Me-CpG-ODN (1668 methylated, 2 μM; TCCATGAZGTTCCTGATGCT, Z=5-methylcytidine, SEQ ID NO:207), LPS (100 ng/ml) or media, as measured by monitoring NF-κB activation (FIG. 5). Similar results were obtained utilizing IL-8 production with the stable clone 293-mTLR9. Results are representative of at least two independent experiments. […] These cells can be used for screening of optimal ligands for innate immune responses driven by TLR9 in multiple species.
Because stable TLR9 transfectants mirrored primary cell responsiveness to CpG-DNA (FIGS. 4 and 5), it was hypothesized that stable transfectants could potentially discern species-specific CpG-motifs through TLR9 receptors. Therefore 293-hTLR9-luc (expressing human TLR9 and 6-fold NF-κB-luc reporter), 293-mTLR9-luc (expressing murine TLR9 and 6-fold NF-κB-luc reporter), 293-hTLR9 (expressing human TLR9) and 293-mTLR9 (expressing murine TLR9) clones were tested for CpG-DNA motif responsiveness. […] Depicted are both NF-κB-driven luciferase and IL-8 production as readout. […] After lysis of the cells luciferase can be detected photometrically based on an enzymatic reaction by luciferase which creates photons. IL-8 production was monitored using enzyme-linked immunosorbent assay (ELISA). […] Results shown in FIG. 11 are representative of three independent experiments. Strikingly, CpG-motif sequence specificity was conferred in a species-specific manner by TLR9. Additionally, the half-maximal concentration for either 2006 or 1668 appears nearly the same as those determined on primary cells (compare FIG. 10 and FIG. 11).
Although 2006 and 1668 are discussed in terms of CpG-motif differences, they are very different in several aspects (see Table 5 for comparison). The lengths are different, 24 versus 20 nucleotides, and 2006 has four CG dinucleotides compared to one in 1668. Additional differences are the CG position relative to the 5′ and 3′ ends and also 5′ sequence differences. In order to determine if motif specificity is a quality of the motif and not the global sequence environment, for this experiment several sequences were produced holding these variables constant. As a starting point, the 1668 sequence was modified by converting the central C to T and the distal TG to CG, thereby creating a second CG in the resulting sequence 5000 (SEQ ID NO:130, Table 5). Then point nucleotide changes were made, progressing toward a 2006-like sequence, 5007 (SEQ ID NO:98). The ODN 5002 (SEQ ID NO:132) is most like 1668 with the exception that C's at positions 12 and 19 have been converted to T's. […]
In the case of “TCCATGACGTTCCTGATGCT (listed as DNA, chemistry not fully specified) [ODN 1668]”, the “murine TLR9 signaling response” value is listed as “significantly stronger”.

Staying with this series, now noted: ODN concentration of half-maximal activation; 293-mTLR9-luc cells, NF-κB-driven luciferase readout, 12 hours; read-out: 293-mTLR9 Kac.
“TCCATGACGTTCCTGATGCT (listed as DNA, chemistry not fully specified) [ODN 1668]”: the EC50 came to 70 nM.

On to “TCCATGACGTTCTTGACGCT (listed as DNA, chemistry not fully specified) [ODN 5000]”, for which the EC50 came out at 82 nM. The same measure, in the same setting: in the case of “TCCATGACGTTCTTGACGTT (listed as DNA, chemistry not fully specified) [ODN 5001]” it was 55 nM.

“TCCATGAGCTTCCTGATGCT (listed as DNA, chemistry not fully specified) [ODN 1668-GC]”: the EC50 was > 10000 nM. Same read-out and setting: next, “TCCATGTCGTTCTTGATGTT (listed as DNA, chemistry not fully specified) [ODN 5004]”: 400 nM. The same measure, in the same setting: in the case of “TCCATGTCGTTTTTGATGTT (listed as DNA, chemistry not fully specified) [ODN 5005]” it was 2000 nM. In the case of “TCCATGTCGTTTTTGTCGTT (listed as DNA, chemistry not fully specified) [ODN 5007]”, the EC50 worked out at 1000 nM. On the same count and under the same terms, in the case of “TCCATGTCGTTTTTGTTGTT (listed as DNA, chemistry not fully specified) [ODN 5006]” it was 650 nM. As for TCGTCGTTTTGTCGTTTTGTCGTT [ODN 2006], the EC50 was > 10000 nM.

For “TGCTGCTTTTGTGCTTTTGTGCTT (listed as DNA, chemistry not fully specified) [ODN 2006-GC]”, the EC50 is > 10000 nM.

These data come from patent publication US7820379B2, “Process for high throughput screening of CpG-based immuno-agonist/antagonist” (Coley Pharmaceutical GmbH, priority 2000, dated 2010).
